In patent US5332574A, “Compounds produced by a strain of Streptomyces exfoliatus” (Bristol-Myers Squibb Company, priority 1993, dated 1994) one finds MIC data, which are given here for two molecules.

Holding throughout (assay): MIC, serial two-fold agar dilution method
Common to all, as to assay type: cell-based
(In general: Agar dilution tests growth on a series of plates holding different concentrations.)

In experiment [1] the test system is Streptococcus faecalis A2808. To be noted: Enterococcus faecalis, A2808, 20 h, pH 7. The protocol:
(§1) The minimum inhibitory concentrations (MICs) of BU-4726G-A and BU-4726G-B were determined against various bacteria and fungi by the serial two-fold agar dilution method. Nutrient agar medium (Eiken) was used for bacteria and Sabouraud dextrose agar medium (Difco) for fungi.
(§2) Medium: Nutrient agar (Eiken, pH 7.0)
(§3) Inoculum size: 10^5 cells/ml
(§4) Inoculated conditions: 32° C., 20 hours

For experiment [2], the system named is Bacillus subtilis ATCC 6633. The protocol: as §1, §2, §3, §4
The subject of experiment [3] is Staphylococcus aureus 209P. The procedure: as §1, §2, §3, §4
In experiment [4] the test system is Pseudomonas aeruginosa A9843 A. To be noted: A9843A. The protocol:
as §1, §2, §3, §4

For a further experiment, the system named is Escherichia coli Juhl. The procedure:
as §1, §2, §3, §4

Experiment [5] relates to Staphylococcus aureus Smith. The protocol: as §1, §2, §3, §4
For another experiment, the system named is Escherichia coli K12. To be noted: Nutrient agar pH 7.0, 10^5 cells/ml, 32° C., 20 hours. The protocol:
as §1, §2, §3, §4

For experiment [6], the system named is Klebsiella pneumoniae PCI 602. The protocol:
as §1, §2, §3, §4

The next experiment relates to Salmonella typhi 901. To be noted: Salmonella enterica, 20 h, pH 7. The procedure:
as §1, §2, §3, §4

Experiment [7] concerns Micrococcus luteus ATCC 9341. The protocol:
as §1, §2, §3, §4

The subject of experiment [8] is Staphylococcus aureus A15036(MRSA). The protocol:
as §1, §2, §3, §4

Experiment [9] has as its system Staphylococcus epidermidis 11-1168. To be noted: 111168, Nutrient agar pH 7.0, 10^5 cells/ml, 32° C., 20 hours. The protocol:
as §1, §2, §3, §4

Molecules are shown by their SMILES. Converted amounts (≈) assume the structure as drawn. Like-named read-outs stand apart in the source and are kept apart here. Where only a bound is given, the exact number is not on record here.

With `N[C@@H](C(=O)N[C@@H]1C(=O)N2C(C(=O)O)=C(Cl)CS[C@H]12)c1ccccc1` [Cefaclor], the minimal inhibitory concentration (MIC) was 25 µg/mL (≈ 68 µM) in experiment [1]; below 0.05 µg/mL in experiment [2] (Bacillus subtilis, ATCC6633, 20 h, pH 7); 0.8 µg/mL (≈ 2.18 µM) in experiment [3] (Staphylococcus aureus, 209P, 20 h, pH 7); above 100 µg/mL in experiment [4] (Pseudomonas aeruginosa, 20 h, pH 7); 0.4 µg/mL (≈ 1.09 µM) in the experiment with Escherichia coli Juhl (Escherichia coli, 20 h, pH 7); 0.4 µg/mL (≈ 1.09 µM) in experiment [5] (Staphylococcus aureus, 20 h, pH 7). The minimal inhibitory concentration (MIC) against Escherichia coli K12 was 0.4 µg/mL (≈ 1.09 µM); in experiment [6] (Klebsiella pneumoniae, PCI602, 20 h, pH 7), 0.2 µg/mL (≈ 0.544 µM); in the experiment with Salmonella typhi 901 it was 0.2 µg/mL (≈ 0.544 µM); in experiment [7] (Micrococcus luteus, ATCC9341, 20 h, pH 7), below 0.05 µg/mL; in experiment [8] (Staphylococcus aureus, MRSA, 20 h, pH 7), 25 µg/mL (≈ 68 µM).
As for `NCC[C@H](O)C(=O)N[C@@H]1C[C@H](N)[C@@H](O[C@H]2O[C@H](CN)[C@@H](O)[C@H](O)[C@H]2O)[C@H](O)[C@H]1O[C@H]1O[C@H](CO)[C@@H](O)[C@H](N)[C@H]1O` [Amikacin], the MIC in experiment [1] was found to be 50 µg/mL (≈ 85.4 µM); in experiment [2] (ATCC6633, Bacillus subtilis ATCC 6633, Nutrient agar pH 7.0, 10^5 cells/ml, 32° C., 20 hours, read-out: MIC), 0.4 µg/mL (≈ 0.683 µM); in experiment [9], 50 µg/mL (≈ 85.4 µM); in experiment [3] (Staphylococcus aureus 209P, Nutrient agar pH 7.0, 10^5 cells/ml, 32° C., 20 hours, read-out: MIC) it was 0.4 µg/mL (≈ 0.683 µM); in experiment [4] (Pseudomonas aeruginosa A9843 A, Nutrient agar pH 7.0, 10^5 cells/ml, 32° C., 20 hours, read-out: MIC), 3.1 µg/mL (≈ 5.29 µM); in the experiment on Escherichia coli Juhl (Escherichia coli Juhl, Nutrient agar pH 7.0, 10^5 cells/ml, 32° C., 20 hours, read-out: MIC), 3.1 µg/mL (≈ 5.29 µM). For the same molecule, the MIC in experiment [5] (Staphylococcus aureus Smith, Nutrient agar pH 7.0, 10^5 cells/ml, 32° C., 20 hours, read-out: MIC) stood at 1.6 µg/mL (≈ 2.73 µM); against Escherichia coli K12, 0.8 µg/mL (≈ 1.37 µM); in [6] (PCI602, Klebsiella pneumoniae PCI 602, Nutrient agar pH 7.0, 10^5 cells/ml, 32° C., 20 hours, read-out: MIC), 0.4 µg/mL (≈ 0.683 µM); against Salmonella typhi 901 it was 3.1 µg/mL (≈ 5.29 µM); in [7] (ATCC9341, Micrococcus luteus ATCC 9341, Nutrient agar pH 7.0, 10^5 cells/ml, 32° C., 20 hours, read-out: MIC), 3.1 µg/mL (≈ 5.29 µM); in experiment [8] (Staphylococcus aureus A15036(MRSA), Nutrient agar pH 7.0, 10^5 cells/ml, 32° C., 20 hours, read-out: MIC) it was 3.1 µg/mL (≈ 5.29 µM).

By MIC is commonly meant the least concentration at which growth counts as inhibited.
